# Test results published in US9308198B2, “Treatment, prevention, and reversal of alcohol-induced brain disease” (priority 2006, dated 2016).
# Assays:
# insulin receptors = conditions: pup cerebellar membrane extracts, chronic gestational ethanol exposure relative to control; not dose-dependent
# Protocol: (§6) Fresh frozen tissue (˜100 mg) was homogenized in 5 volumes of NP-40 lysis buffer (50 mM Tris-HCl, pH 7.5, 1% NP-40, 150 mM NaCl, 1 mM EDTA, 2 mM EGTA) containing protease inhibitors (1 mM PMSF, 0.1 mM TPCK, 1 μg/ml aprotinin, 1 μg/ml pepstatin A, 0.5 μg/ml leupeptin, 1 mM NaF, 1 mM Na4P2O7). Protein concentrations were determined using the bicinchoninic acid (BCA) assay (Pierce, Rockford, Ill.). Exploratory studies determined the amounts of protein and concentrations of radiolabeled ligand required to achieve 20% specific binding. Insulin receptor binding assays were performed using 100 μg protein. IGF-I binding assays required 25 μg protein per sample, and IGF-II receptor binding assays were optimized using 10 μg protein. […]
# (§7) All reactions were performed in 1.5 ml Eppendorff tubes, and the incubations were performed at 4° C. for 16 hours with gentle platform agitation. […] The samples were counted for 1 minute in an LKB CompuGamma CS Gamma counter. Specific binding was calculated by subtracting fmol of non-specific binding, i.e., amount bound in the presence of cold ligand, from the total fmol bound (absence of unlabeled competitive ligand). The results were analyzed and plotted using the GraphPad Prism 4 software (GraphPad Software, Inc., San Diego, Calif.).
# [1] = system: IGF-I receptor tyrosine kinase; conditions: cerebellar tissue, ethanol-exposed relative to control pups; normalized to receptor protein; not dose-dependent
# Protocol: (§1) Insulin or IGF-I receptor molecules were immunoprecipitated from individual 100 μg protein samples using rabbit polyclonal antibodies (1 μg/ml) and Protein A sepharose (Amersham-Pharmacia, Arlington Heights, Ill.) (Ausubel et al, (2002) Current Protocols in Molecular Biology. John Wiley & Sons New York). Receptor tyrosine kinase activity was measured in the immune precipitates using a non-isotopic assay (Chemicon International, Temecula, Calif.) according to the manufacturer's protocol with small modifications. Briefly, tyrosine phosphorylation of the biotinylated synthetic peptide substrate captured onto streptavidin-coated wells was detected with horseradish peroxidase conjugated anti-phospho-tyrosine and SuperSignal West Pico chemiluminescent substrate (Pierce Chemical Co., Rockford, Ill.). Luminescence was measured in a TopCount machine (Packard Instrument Co., Meriden, Conn.). […]
# (§2) Studies were done to characterize the degree to which ethanol-associated impairments in receptor binding were associated with reductions in insulin and IGF-I receptor tyrosine kinase activities, and insulin and IGF-I receptor protein expression. Receptor protein levels were measured by Western blotting with digital image densitometry.
# [2] = system: insulin receptor tyrosine kinase; conditions: cerebellar tissue, ethanol-exposed relative to control pups; normalized to receptor protein; not dose-dependent
# Protocol: as §1, §2
# IGF-II receptors = conditions: pup cerebellar membrane extracts, chronic gestational ethanol exposure relative to control; not dose-dependent
# Protocol: as §6, §7
# cerebellar ATP content = conditions: rat, in vivo
# Protocol: as §2
# cerebellar cortex = conditions: rat, in vivo
# From the text: (§3) Male (˜200 g) Long Evans rats (Charles River Laboratories, Cambridge, Mass.) were fed isocaloric liquid diets (BioServ, Frenchtown, N.J.) in which ethanol comprised 0% or 37% of the caloric content (9.25% v/v) for 6 weeks (Yeon et al., Hepatology 38:703 (2003)). A chow fed control group was also studied. Rats were monitored daily to ensure equivalent food consumption and maintenance of body weight. Upon sacrifice, the brains were harvested and either immersion fixed in Histochoice fixative (Amresco Corp., Solon, Ohio) for paraffin embedding, or sliced fresh to micro-dissect temporal cortex, hypothalamus, and cerebellum. The fresh tissue blocks were snap frozen in a dry ice-methanol bath and stored at −80° C. for mRNA and protein studies.
# (§4) Fixed brains were sectioned in the coronal plane along standardized landmarks and embedded in paraffin. Paraffin-embedded sections (8 μm thick) were stained with hematoxylin and eosin, or immunostained with monoclonal antibodies to 8-hydroxy-deoxyguanosine (8-OHdG) (Oxis Research) or 4-hydroxynonenol (HNE) (Chemicon International, Temecula, Calif.) to detect DNA damage and lipid peroxidation, respectively. Prior to immunostaining, deparaffinized, re-hydrated sections were treated with 0.1 mg/ml saponin in phosphate buffered saline (10 mM sodium phosphate, 0.9% NaCl, pH 7.4; PBS) for 20 minutes at room temperature, followed by 3% hydrogen peroxide in methanol for 10 minutes to quench endogenous peroxidase activity, and then 30 minutes in SuperBlock-TBS (Pierce Chemical Co., Rockford, Ill.) at room temperature to block non-specific binding sites. The sections were incubated overnight at 4° C. with 0.5-1 μg/ml of primary antibody. Immunoreactivity was detected with biotinylated secondary antibody, avidin biotin horseradish peroxidase complex (ABC) reagents, and diaminobenzidine as the chromogen (Vector Laboratories, Burlingame, Calif.) (Lam et al. J. Biol. Chem. 269:20648 (1994)). The tissue sections were counterstained with hematoxylin and examined by light microscopy.
# [3] = system: lipid peroxidation and DNA damage in brain; conditions: rat, in vivo
# From the text: as §3, §4
# [4] = system: acetylcholinesterase (AChE) mRNA; conditions: ethanol-exposed pup cerebellar tissue vs control
# Protocol: (§5) Total RNA was isolated from brain tissue using TRIzol reagent (Invitrogen, Carlsbad, Calif.) according to the manufacturer's protocol. RNA concentrations and purity were determined from the absorbances measured at 260 nm and 280 nm. RNA (2 μg) was reverse transcribed using the AMV First Strand cDNA synthesis kit (Roche Diagnostics Corporation, Indianapolis, Ind.) and random oligodeoxynucleotide primers. Real time quantitative RT-PCR was used to measure mRNA levels of insulin, IGF-I, and IGF-II growth factors, their corresponding receptors, neuronal (Hu), astrocytic (glial fibrillary acidic protein; GFAP), oligodendroglial (myelin-associated glycoprotein-1; MAG-1), microglial (AIF1), and endothelial (endothelin-1; ET-1) cell genes, acetyl cholinesterase (AChE), and choline acetyltransferase (ChAT). Ribosomal 18S RNA levels measured in parallel reactions were used to calculate relative abundance of the mRNA transcripts (Myers et al., Trends Biochem. Sci. 19:289 (1994); Baltensperger et al., Science 260:1950 (1993)). PCR amplifications were performed in 25 μl reactions containing cDNA generated from 2.5 ng of original RNA template, 300 nM each of gene specific forward and reverse primer (Table 1), and 12.5 μl of 2× QuantiTect SYBR Green PCR Mix (Qiagen Inc, Valencia, Calif.). […]
# [5] = system: choline acetyltransferase (ChAT) mRNA; conditions: ethanol-exposed pup cerebellar tissue vs control
# Protocol: as §5
smiles,measurement,setting,value
CCO [ethanol],impairment of insulin receptor binding,insulin receptors,~80%
same,IGF-I receptor tyrosine kinase activity,[1],significantly reduced
same,insulin receptor tyrosine kinase activity,[2],significantly reduced
same,impairment of IGF-II receptor binding,IGF-II receptors,~50%
same,cerebellar ATP content,cerebellar ATP content,dose-dependent progressive reductions
same,structural abnormalities in the cerebellar cortex,cerebellar cortex,loss of Purkinje cells and reduced densities of cells within the internal granule layer
same,8-OHdG immunoreactivity (DNA damage),[3],only detected in scattered cells
same,HNE immunoreactivity (lipid peroxidation),[3],conspicuously increased cellular labeling
same,AChE mRNA expression,[4],increases
same,ChAT mRNA expression,[5],significant reductions
